Tested on: human monocyte β-glucan receptors
Assay: Inhibition of adherent monocyte phagocytosis of zymosan particles after pretreatment with isolated carbohydrates
Type: cell-based
Settings: for phagocytosis-inhibiting activity after derivatization with 2-aminopyridine (in words): 100 ng/ml tested; for activity after derivatization with 2-aminopyridine (in words): as much as 800 ng/ml in the functional monocyte assays; for phagocytosis-inhibiting activity / interaction with human monocyte β-glucan receptors (in words): concentration not given

| Structure (SMILES) | phagocytosis-inhibiting activity after derivatization with 2-aminopyridine (in words) | activity after derivatization with 2-aminopyridine (in words) | phagocytosis-inhibiting activity / interaction with human monocyte β-glucan receptors (in words) | effect on monocyte ingestion of zymosan (in words) (500 ng/ml to 100 μg/ml, without derivatization) | proportion of monocytes ingesting zymosan after pretreatment (100 μg/ml, without derivatization, without pretreatment 67% (synthetic β-heptaglucoside) and 50% (maltoheptose)) |
| --- | --- | --- | --- | --- | --- |
| OC[C@H]1O[C@H](O[C@H]2[C@H](O)[C@@H](O)[C@@H](O[C@H]3[C@H](O)[C@@H](O)[C@@H](O[C@H]4[C@H](O)[C@@H](O)[C@@H](O[C@H]5[C@H](O)[C@@H](O)[C@@H](O[C@H]6[C@H](O)[C@@H](O)[C@@H](O[C@H]7[C@H](O)[C@@H](O)C(Nc8ccccn8)O[C@@H]7CO)O[C@@H]6CO)O[C@@H]5CO)O[C@@H]4CO)O[C@@H]3CO)O[C@@H]2CO)[C@H](O)[C@@H](O)[C@@H]1O (some centres unmarked) [Derivatized maltoheptose] | not acquired | remained inactive | remained inactive | – | – |
| OC[C@H]1O[C@@H](OC[C@H]2O[C@@H](OC[C@H]3O[C@@H](OC[C@H]4O[C@@H](OC[C@H]5OC(Nc6ccccn6)[C@H](O)[C@@H](O)[C@@H]5O)[C@H](O)[C@@H](O[C@@H]5O[C@H](CO)[C@@H](O)[C@H](O)[C@H]5O)[C@@H]4O)[C@H](O)[C@@H](O)[C@@H]3O)[C@H](O)[C@@H](O[C@@H]3O[C@H](CO)[C@@H](O)[C@H](O)[C@H]3O)[C@@H]2O)[C@H](O)[C@@H](O)[C@@H]1O (stereo partly drawn) [Derivatized synthetic β-heptaglucoside] | not acquired | remained inactive | remained inactive | – | – |
| OC[C@H]1O[C@H](O[C@H]2[C@H](O)[C@@H](O)[C@@H](O[C@H]3[C@H](O)[C@@H](O)[C@@H](O[C@H]4[C@H](O)[C@@H](O)[C@@H](O[C@H]5[C@H](O)[C@@H](O)[C@@H](O[C@H]6[C@H](O)[C@@H](O)[C@@H](O[C@H]7[C@H](O)[C@@H](O)C(O)O[C@@H]7CO)O[C@@H]6CO)O[C@@H]5CO)O[C@@H]4CO)O[C@@H]3CO)O[C@@H]2CO)[C@H](O)[C@@H](O)[C@@H]1O (some centres unmarked) [Maltoheptose] | – | – | – | no effect | 52% |

Source: patent US5057503A, “Derivativized polysaccharides with biologic activity, method of their isolation, and uses therefor” (The Brigham and Women's Hospital, priority 1989, dated 1991)
